How the values were obtained:
[1] = system: Phosphatidate Phosphohydrolase; test: In vivo liver enzyme study: phosphatidate phosphohydrolase; design: species or system mouse; details: for Phosphatidate Phosphohydrolase: CF1 liver after 16 days i.p.
Description: (§1) In vitro enzymatic studies were determined using 10% homogenates of CF1 male mouse liver with 50-200 μM of test drugs. In vivo enzymatic studies were determined using 10% homogenates of liver from CF1 male mice obtained after administering the agents for 16 days at a dose ranging from 2.5-20 mg/kg/day intraperitoneally. The liver homogenates for both in vitro and in vivo studies were prepared in 0.25M sucrose and 0.001M (ethylenedinitrilo)tetraacetic acid. Acetyl coenzyme A synthetase and adenosine triphosphate dependent citrate lyase activities were determined spectrophotometrically at 540 nm as the hydroxylamate of acetyl coenzyme A formed after 30 min at 37° C. Mitochondrial citrate exchange was determined by the procedure of Robinson et al [Eur. J. Biochem., 216, 63 (1970)] using ^14 C-sodium bicarbonate (41 mCi/mmol) incorporated into mitochondrial ^14 C-citrate after isolating rat mitochondria (9000 g×10 min) from the homogenates. The exchanges of the ^14 C-citrate were determined after incubating the mitochondrial fraction which was loaded with labeled citrate and test drugs for 10 min. Then the radioactivity was measured in the mitochondrial and supernantant fractions in scintillation fluid and expressed as a percentage. Cholesterol side chain oxidation was determined by the method of Kritchevsky and Tepper [Artherosclerosis, 18, 93 (1973)] using (26-^14 C) cholesterol (50 mCi/mmol) and mitochondria isolated from rat liver homogenates. After 18 hr incubation at 37° C. with test drugs, the generated ^14 CO2 was trapped in the center well in {2-(2-(p-1,1,3,3,-tetramethylbutylcresoxy)ethoxy]ethyl } dimethylbenzylammonium hydroxide and counted. 3-Hydroxy-3-methylglutaryl coenzyme A reductase (HMG coenzyme A reductase) activity was measured using 1-^14 C-acetate (56 mCi/mmol) and a post-mitochondrial supernatant (9000 g×20 min) incubated for 60 min at 37° C. [Wada et al, J. Biochem. (Tokyo), 65 71 (1969)]. The digitonide derivative of cholesterol was isolated and counted. Acetyl coenzyme A carboxylase activity was measured by the method of Greenspan and Lowenstein [J. Biol. Chem., 243, 6273 (1968)]. […] Fatty acid synthetase activity was determined by the method of Brady et al [J. Biol. Chem., 235, 3093 (1960)] using [2-^14 C] malonyl-coenzyme A (37.5 mCi/mmol) which was incorporated into newly synthesized fatty acids that were extracted with ether and counted. Acyl transferase activity was determined with glycerol-3phosphate [L-2-^3 H(N)] […] HCl and counted. Phosphatidate phosphohydrolase activity was measured as the inorganic phosphate released after 30 min from phosphatidic acid by the method of Mavis et al [J. Lipid Res., 19, 467 (1978)]. The released inorganic phosphate after development with ascorbic acid and ammonium molybdate was determined at 820 nm. […]

[2] = Organ weights; assay type: in vivo, rat; details: for Organ Weight: 14 days 10 mg/Kg/Day, Treated
Description: Periodic animal weights were obtained during the experiments and expressed as a percentage of the animal's weight on day 0. After dosing for 14 days with test drugs, selected organs were excised, trimmed of fat and weighed. The organ weights were expressed as a percentage of the total body weight of the animal.

[3] = target: T1, ATP Dependent Citrate Lyase (Mus musculus, UniProt Q91V92); test: In vivo liver enzyme study: ATP dependent citrate lyase; details: CF1 liver after 16 days i.p.
T1 construct: 10% homogenates of CF1 male mouse liver; from tissue; host or cells: CF1 male mouse liver, 10% homogenate
T1 sequence (Q91V92 1-1091): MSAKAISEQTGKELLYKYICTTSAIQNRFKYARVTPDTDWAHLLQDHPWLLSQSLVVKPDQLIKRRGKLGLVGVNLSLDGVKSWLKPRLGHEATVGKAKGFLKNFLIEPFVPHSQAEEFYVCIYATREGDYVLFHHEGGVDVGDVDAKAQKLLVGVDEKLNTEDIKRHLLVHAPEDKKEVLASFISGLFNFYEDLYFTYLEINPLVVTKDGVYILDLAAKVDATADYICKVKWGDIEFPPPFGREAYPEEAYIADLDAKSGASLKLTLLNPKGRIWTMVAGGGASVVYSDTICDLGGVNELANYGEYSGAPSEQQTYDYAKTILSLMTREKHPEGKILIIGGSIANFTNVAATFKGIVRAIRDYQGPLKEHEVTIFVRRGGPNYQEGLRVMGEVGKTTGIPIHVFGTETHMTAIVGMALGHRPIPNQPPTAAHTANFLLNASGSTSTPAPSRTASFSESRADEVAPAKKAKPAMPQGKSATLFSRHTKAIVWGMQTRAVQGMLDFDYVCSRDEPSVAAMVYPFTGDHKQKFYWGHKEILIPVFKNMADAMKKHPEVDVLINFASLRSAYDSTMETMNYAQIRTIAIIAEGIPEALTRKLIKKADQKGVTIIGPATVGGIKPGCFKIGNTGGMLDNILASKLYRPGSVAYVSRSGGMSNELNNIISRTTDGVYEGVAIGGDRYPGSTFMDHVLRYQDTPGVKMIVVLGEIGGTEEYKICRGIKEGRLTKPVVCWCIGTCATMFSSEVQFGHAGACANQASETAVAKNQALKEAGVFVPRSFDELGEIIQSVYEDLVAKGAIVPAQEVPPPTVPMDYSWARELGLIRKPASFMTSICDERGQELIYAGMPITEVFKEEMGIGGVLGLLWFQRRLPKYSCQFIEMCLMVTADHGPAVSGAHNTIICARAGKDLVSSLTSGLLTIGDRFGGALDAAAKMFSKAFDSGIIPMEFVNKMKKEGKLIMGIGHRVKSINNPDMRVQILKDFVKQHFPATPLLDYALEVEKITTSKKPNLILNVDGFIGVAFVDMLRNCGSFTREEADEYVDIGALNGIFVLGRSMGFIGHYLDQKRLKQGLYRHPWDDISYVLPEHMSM
Description: as §1, with “homogenates.” for “homogenates. After 18 hr incubation at 37° C. with test drugs, the generated ^14 CO2 was trapped in the center well in {2-(2-(p-1,1,3,3,-tetramethylbutylcresoxy)ethoxy]ethyl } dimethylbenzylammonium hydroxide and counted. 3-Hydroxy-3-methylglutaryl coenzyme A reductase (HMG coenzyme A reductase) activity was measured using 1-^14 C-acetate (56 mCi/mmol) and a post-mitochondrial supernatant (9000 g×20 min) incubated for 60 min at 37° C. [Wada et al, J. Biochem. (Tokyo), 65 71 (1969)]. The digitonide derivative of cholesterol was isolated and counted. Acetyl coenzyme A carboxylase activity was measured by the method of Greenspan and Lowenstein [J. Biol. Chem., 243, 6273 (1968)].”, “(1978)].” for “(1978)]. The released inorganic phosphate after development with ascorbic acid and ammonium molybdate was determined at 820 nm.”

{Cu[(CH3)3 N.BH2 CO2 ]2.(CH3)3 N.BH2 COOH} [Compound I]
Phosphatidate Phosphohydrolase ([1]; 2.5 mg/kg): 55 ± 5% of control | Phosphatidate Phosphohydrolase ([1]; 5.0 mg/kg): 53 ± 5% of control | Phosphatidate Phosphohydrolase ([1]; 10 mg/kg): 18% of control | Phosphatidate Phosphohydrolase activity reduction ([1]; in vivo, mice 16 days, 10 mg/kg/day): 82% | Adrenal weights ([2]; after drug administration): not altered | Organ Weight ([2]; rat Adrenal): 0.031 gm | Organ Weight ([2]; rat Brain): 1.666 gm | Organ Weight ([2]; rat Chyme): 5.9333 gm | Organ Weight ([2]; rat Feces): 8.633 gm | Organ Weight ([2]; rat Heart): 1.021 gm | Organ Weight ([2]; rat Kidney): 2.167 gm | Organ Weight ([2]; rat Large Intestine): 4.233 gm | Organ Weight ([2]; rat Liver): 10.600 gm | Organ Weight ([2]; rat Lung): 1.933 gm | Organ Weight ([2]; rat Small Intestine): 6.433 gm | Organ Weight ([2]; rat Spleen): 0.501 gm | Organ Weight ([2]; rat Stomach): 1.766 gm | ATP Dependent Citrate Lyase ([3]; 2.5 mg/kg): 70 ± 6% of control | ATP Dependent Citrate Lyase ([3]; 5.0 mg/kg): 79 ± 7% of control | ATP Dependent Citrate Lyase ([3]; 10 mg/kg): 72 ± 7% of control

— patent US4550186A, “Binuclear copper (II) carboxylates formed from amine-carboxyboranes” (Duke University, priority 1983, dated 1985)
